Each structure is given as a SMILES string.

The first experiment concerns the target T1, CD80-CD28 interaction (Homo sapiens, UniProt P33681).
T1 sequence (P33681 35-242 limits assumed): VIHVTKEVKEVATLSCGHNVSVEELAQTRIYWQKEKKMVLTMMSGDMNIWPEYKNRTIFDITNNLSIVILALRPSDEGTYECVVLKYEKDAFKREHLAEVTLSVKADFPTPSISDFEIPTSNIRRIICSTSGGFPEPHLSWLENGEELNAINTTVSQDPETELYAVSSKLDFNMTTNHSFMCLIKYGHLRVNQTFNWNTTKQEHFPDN
As to the kind of experiment: Homogenous Time Resolved Fluorescence (HTRF) assay, cell free. In kind it is binding. To be noted: cell-free HTRF, compound concentration series 100 μM-1.7 nM, 4 hours at room temperature; read-out: Activity (EC50 in the HTRF assay). The protocol: Homogenous Time Resolved Fluorescence Assay
The examples described above were tested in a cell free Homogenous Time Resolved Fluorescence (HTRF) assay to determine their activity as inhibitors of the CD80-CD28 interaction.
In the assay, europium and allophycocyanin (APC) are associated with CD28 and CD80 indirectly (through antibody linkers) to form a complex, which brings the europium and APC into close proximity to generate a signal. The complex comprises the following six proteins: fluorescent label 1, linker antibody 1, CD28 fusion protein, CD80 fusion protein, linker antibody 2, and fluorescent label 2. The table below describes these reagents in greater detail.
On formation of the complex, europium and APC are brought into proximity and a signal is generated.
Non-specific interaction was measured by substituting a mouse Fab fragment (C215) for the CD80 mouse Fab fragment fusion protein (1.9 μg/ml). The assay was carried out in black 384 well plates in a final volume of 30 μl. Assay buffer: 50 mM Tris-HCl, 150 mM NaCl pH7.8, containing 0.1% BSA (w/v) added just prior to use.
Compounds were added to the above reagents in a concentration series ranging between 100 μM-1.7 nM. The reaction was incubated for 4 hours at room temperature. Dual measurements were made using a Wallac Victor 1420 Multilabel Counter. First measurement: excitation 340 nm, emission 665 nm, delay 50 μs, window time 200 μs. second measurement: excitation 340 nm, emission 615 nm, delay 50 μs, window time 200 μs. Counts were automatically corrected for fluorescence crossover, quenching and background. The EC50 activities of compounds tested are recorded as: EC50:*=>10 μM,**=1-10 μM,***=<1 μM.
Background: TR-FRET usually uses a lanthanide donor and a delayed reading to cut background.
Take `COCCNC(=O)c1ccc(-n2[nH]c3c(nnc4ccccc43)c2=O)cc1` [Example 9a]: the EC50 (usually the concentration needed to bring the measured effect to its halfway point) was 1000 to 10000 nM. In the case of `CN1CCN(CCCNC(=O)c2ccc(-n3[nH]c4c(nnc5ccccc54)c3=O)cc2)CC1` [Example 10], the EC50 is less than 1000 nM. On the same count and under the same terms, the value for `CN(C)CCNC(=O)c1ccc(-n2[nH]c3c(nnc4ccccc43)c2=O)cc1` [Example 11] was less than 1000 nM. Same read-out and setting: next, `O=C(NCCN1CCOCC1)c1ccc(-n2[nH]c3c(nnc4ccccc43)c2=O)cc1` [Example 12]: less than 1000 nM. For `O=C(NCCCN1CCOCC1)c1ccc(-n2[nH]c3c(nnc4ccccc43)c2=O)cc1` [Example 13], the EC50 was less than 1000 nM. Still for that read-out and setting: the value for `CC(C)=CCC/C(C)=C/CNC(=O)c1ccc(-n2[nH]c3c(nnc4ccccc43)c2=O)cc1` [Example 14] was greater than 10000 nM; that for `O=C(Nc1ccccc1)c1ccc(-n2[nH]c3c(nnc4ccccc43)c2=O)cc1` [Example 15] was 1000 to 10000 nM; that for `Cc1ccc2[nH]cc(CCNC(=O)c3ccc(-n4[nH]c5c(nnc6ccccc65)c4=O)cc3)c2c1` [Example 16] was greater than 10000 nM. The same measure, in the same setting: the value for `CC(C)(C)OC(=O)NCCNC(=O)c1ccc(-n2[nH]c3c(nnc4ccccc43)c2=O)cc1` [Example 17] was 1000 to 10000 nM; that for `CN1CCC(NC(=O)c2ccc(-n3[nH]c4c(nnc5ccccc54)c3=O)cc2)CC1` [Example 18] was less than 1000 nM; that for `CC(NC(=O)c1ccc(-n2[nH]c3c(nnc4ccccc43)c2=O)cc1)c1ccccc1` (centres unmarked) [Example 19] was greater than 10000 nM. `O=C(NCCc1ccncc1)c1ccc(-n2[nH]c3c(nnc4ccccc43)c2=O)cc1` [Example 20]: the EC50 is less than 1000 nM.

As for `O=C(NCc1ccc([N+](=O)[O-])cc1)c1ccc(-n2[nH]c3c(nnc4ccccc43)c2=O)cc1` [Example 21], the EC50 was 1000 to 10000 nM. The same measure, in the same setting: next, `O=C(NCCCn1ccnc1)c1ccc(-n2[nH]c3c(nnc4ccccc43)c2=O)cc1` [Example 23]: less than 1000 nM; `O=C(NC1CCCCCC1)c1ccc(-n2[nH]c3c(nnc4ccccc43)c2=O)cc1` [Example 24]: 1000 to 10000 nM.

For `CCCCC(CC)CNC(=O)c1ccc(-n2[nH]c3c(nnc4ccccc43)c2=O)cc1` (centres unmarked) [Example 25], the EC50 is greater than 10000 nM.

`CC(C)CCCC(C)NC(=O)c1ccc(-n2[nH]c3c(nnc4ccccc43)c2=O)cc1` (centres unmarked) [Example 26]: the EC50 is less than 1000 nM.

In the case of `CCCCCCC(C)NC(=O)c1ccc(-n2[nH]c3c(nnc4ccccc43)c2=O)cc1` (centres unmarked) [Example 27], the EC50 was greater than 10000 nM. On the same count and under the same terms, the value for `C=C(C)C(=O)OCCNC(=O)c1ccc(-n2[nH]c3c(nnc4ccccc43)c2=O)cc1` [Example 28] was 1000 to 10000 nM; that for `CC(O)CCNC(=O)c1ccc(-n2[nH]c3c(nnc4ccccc43)c2=O)cc1` (centres unmarked) [Example 29] was less than 1000 nM. Still for that read-out and setting: next, `COc1ccc2[nH]cc(CCNC(=O)c3ccc(-n4[nH]c5c(nnc6ccccc65)c4=O)cc3)c2c1` [Example 31]: 1000 to 10000 nM; `CC1CCCCN1CCCNC(=O)c1ccc(-n2[nH]c3c(nnc4ccccc43)c2=O)cc1` (centres unmarked) [Example 32]: less than 1000 nM; `CC(C)C(C)NC(=O)c1ccc(-n2[nH]c3c(nnc4ccccc43)c2=O)cc1` (centres unmarked) [Example 33]: 1000 to 10000 nM. The same measure, in the same setting: the value for `CCOC(=O)CC(C)NC(=O)c1ccc(-n2[nH]c3c(nnc4ccccc43)c2=O)cc1` (centres unmarked) [Example 34] was 1000 to 10000 nM.

Take `O=C(NCCc1cnc[nH]1)c1ccc(-n2[nH]c3c(nnc4ccccc43)c2=O)cc1` [Example 35]: the EC50 fell in the range of 1000 to 10000 nM. The same measure, in the same setting: the value for `O=C(NCCN1CCNC1=O)c1ccc(-n2[nH]c3c(nnc4ccccc43)c2=O)cc1` [Example 36] was greater than 10000 nM. On the same count and under the same terms, next, `O=C(NCCN1CCN(Cc2ccccc2)CC1)c1ccc(-n2[nH]c3c(nnc4ccccc43)c2=O)cc1` [Example 37]: less than 1000 nM; `CC(C)(C)C1CCC(NC(=O)c2ccc(-n3[nH]c4c(nnc5ccccc54)c3=O)cc2)CC1` (centres unmarked) [Example 38]: greater than 10000 nM. Same read-out and setting: next, `O=C(NCc1cccc([N+](=O)[O-])c1)c1ccc(-n2[nH]c3c(nnc4ccccc43)c2=O)cc1` [Example 39]: 1000 to 10000 nM; `O=C(Nc1ccc(N2CCOCC2)cc1)c1ccc(-n2[nH]c3c(nnc4ccccc43)c2=O)cc1` [Example 40]: 1000 to 10000 nM; `O=C(NCCCc1ccccc1)c1ccc(-n2[nH]c3c(nnc4ccccc43)c2=O)cc1` [Example 41]: 1000 to 10000 nM. As for `O=C(NCCCNC(=O)c1ccc(-n2[nH]c3c(nnc4ccccc43)c2=O)cc1)OCc1ccccc1` [Example 42], the EC50 was in the range of 1000 to 10000 nM. The same measure, in the same setting: next, `CCCCCC(C)NC(=O)c1ccc(-n2[nH]c3c(nnc4ccccc43)c2=O)cc1` (centres unmarked) [Example 43]: 1000 to 10000 nM. Still for that read-out and setting: the value for `O=C(NC1CCCC1OCc1ccccc1)c1ccc(-n2[nH]c3c(nnc4ccccc43)c2=O)cc1` (centres unmarked) [Example 44] was greater than 10000 nM; that for `CCOC(CNC(=O)c1ccc(-n2[nH]c3c(nnc4ccccc43)c2=O)cc1)OCC` [Example 45] was 1000 to 10000 nM; that for `CCNC(=O)c1ccc(-n2[nH]c3c(nnc4ccccc43)c2=O)cc1` [Example 46] was less than 1000 nM. On the same count and under the same terms, the value for `O=C(NCCNc1ccccc1)c1ccc(-n2[nH]c3c(nnc4ccccc43)c2=O)cc1` [Example 47] was less than 1000 nM. Take `CNCCNC(=O)c1ccc(-n2[nH]c3c(nnc4ccccc43)c2=O)cc1` [Example 48]: the EC50 is less than 1000 nM. Same read-out and setting: next, `CCNCCNC(=O)c1ccc(-n2[nH]c3c(nnc4ccccc43)c2=O)cc1` [Example 49]: less than 1000 nM; `O=C(NCCOCCO)c1ccc(-n2[nH]c3c(nnc4ccccc43)c2=O)cc1` [Example 50]: 1000 to 10000 nM; `O=C(NCCO)c1ccc(-n2[nH]c3c(nnc4ccccc43)c2=O)cc1` [Example 51]: less than 1000 nM. The same measure, in the same setting: next, `CNCCCNC(=O)c1ccc(-n2[nH]c3c(nnc4ccccc43)c2=O)cc1` [Example 52]: less than 1000 nM; `NCCCCNC(=O)c1ccc(-n2[nH]c3c(nnc4ccccc43)c2=O)cc1` [Example 54]: less than 1000 nM; `CC(C)CC(C)NC(=O)c1ccc(-n2[nH]c3c(nnc4ccccc43)c2=O)cc1` (centres unmarked) [Example 55]: less than 1000 nM. On the same count and under the same terms, the value for `O=C(NCc1ccc(F)cc1)c1ccc(-n2[nH]c3c(nnc4ccccc43)c2=O)cc1` [Example 56] was 1000 to 10000 nM. Consider `O=C(NC1CCCCC1)c1ccc(-n2[nH]c3c(nnc4ccccc43)c2=O)cc1` [Example 57], for which the EC50 is 1000 to 10000 nM. Same read-out and setting: the value for `CCCCN(CCCC)CCCNC(=O)c1ccc(-n2[nH]c3c(nnc4ccccc43)c2=O)cc1` [Example 58] was less than 1000 nM; that for `O=C(NC1CCCCCCCCCCC1)c1ccc(-n2[nH]c3c(nnc4ccccc43)c2=O)cc1` [Example 59] was greater than 10000 nM; that for `CCN(CC)CCNC(=O)c1ccc(-n2[nH]c3c(nnc4ccccc43)c2=O)cc1` [Example 60] was less than 1000 nM. As for `CN1CCCC1CCNC(=O)c1ccc(-n2[nH]c3c(nnc4ccccc43)c2=O)cc1` (centres unmarked) [Example 61], the EC50 is less than 1000 nM. `CC1CCC(NC(=O)c2ccc(-n3[nH]c4c(nnc5ccccc54)c3=O)cc2)CC1` (centres unmarked) [Example 62]: the concentration giving a half-maximal response (EC50) lay in the range of 1000 to 10000 nM. Still for that read-out and setting: next, `O=C(NCCOc1ccccc1)c1ccc(-n2[nH]c3c(nnc4ccccc43)c2=O)cc1` [Example 63]: 1000 to 10000 nM; `O=C(NCc1ccc(OC(F)(F)F)cc1)c1ccc(-n2[nH]c3c(nnc4ccccc43)c2=O)cc1` [Example 64]: 1000 to 10000 nM; `O=C(NCCNc1cccc2ccccc12)c1ccc(-n2[nH]c3c(nnc4ccccc43)c2=O)cc1` [Example 65]: 1000 to 10000 nM. Still for that read-out and setting: next, `CCOC(=O)C(C)NC(=O)c1ccc(-n2[nH]c3c(nnc4ccccc43)c2=O)cc1` (centres unmarked) [Example 66]: 1000 to 10000 nM.

The same experiment, now with this note: inhibition of the CD80-CD28 interaction, 4 hours at room temperature; read-out: EC50 activity in the HTRF assay.
On to `O=C(O)c1ccc(-n2[nH]c3c(nnc4ccccc43)c2=O)cc1` [Example 1, 4-(3-oxo-1,3-dihydro-2H-pyrazolo[4,3-c]cinnolin-2-yl)benzoic acid], for which the EC50 is greater than 10000 nM. On the same count and under the same terms, next, `O=C(O)c1ccc(-n2[nH]c3c(nnc4c(F)cccc43)c2=O)cc1` [Example 5, 4-(6-fluoro-3-oxo-1,3-dihydro-2H-pyrazolo[4,3-c]cinnolin-2-yl)benzoic acid]: greater than 10000 nM; `CN(C)CCCNC(=O)Nc1ccc(-n2[nH]c3c(nnc4ccccc43)c2=O)cc1` [Example 8, N-[3-(dimethylamino)propyl]-N′-[4-(3-oxo-1,3-dihydro-2H-pyrazolo[4,3-c]cinnolin-2-yl)phenyl]urea]: less than 1000 nM; `CCOC(=O)c1ccc(-n2[nH]c3c(nnc4ccccc43)c2=O)cc1` [Example 9, 4-(3-oxo-1,3-dihydro-2H-pyrazolo[4,3-c]cinnolin-2-yl)benzoic acid ethyl ester]: 1000 to 10000 nM.

(Values after patent US8309552B2, “Immunomodulating heterocyclic compounds” (Medigene AG, priority 2003, dated 2012).)
